According to US11820726B2, “Motuporamine derivatives as antimicrobial agents and antibiotic enhancers against resistant gram-negative bacteria” (University of Central Florida Research Foundation, Inc., priority 2017, dated 2023):

Tests used:
[1] = test system: S. aureus RN4220, P. aeruginosa PAO1 and E. coli ANSI; settings: cited from earlier work; for antibacterial activity: unsubstituted diamines; for activity against S. aureus RN4220, P. aeruginosa PAO1 and E. coli ANSI: higher polyamines
bacterial membrane = settings: cited from earlier work
[2] = test system: Staphylococcus aureus ATCC25923; experiment: ATP release (membrane disruption) in S. aureus; type: cell-based; settings: ATP release for 1 min, 100 μg/mL
Experimental: Measurement of ATP efflux: Squalamine were prepared in doubly distilled water at different concentrations. A suspension of growing S. aureus or E. aerogenes (EA289) in MH broth was incubated at 37° C. The suspension (90 μL) was added to squalamine solution (10 μL, synthesized in lab according to reported procedures), and the mixture was vortexed for Is. Luciferin-luciferase reagent (Yelen, France; 50 μL) was immediately added, and luminescence was quantified with an Infinite M200 microplate reader (Tecan) for 5 s. ATP concentration was quantified by addition of a known amount of ATP (1 μM).

[3] = test system: E. aerogenes EA289, P. aeruginosa PAO1, and K. pneumoniae KPC2-ST258; experiment: Determination of antibiotic MIC in the presence of compounds (restoring enhancer concentration); type: cell-based
Experimental: Determination of antibiotic MIC in the presence of compounds: Briefly, restoring enhancer concentrations were determined with an inoculum of 5×10^5 colony forming unit (CFU) in MH broth (200 μL) containing twofold serial dilutions of each derivative and antibiotic (chloramphenicol, doxycycline, cefepime, or erythromycin; 2 μg/mL). […] Measurements were repeated in triplicate.

P. aeruginosa PAO1 = experiment: MIC of doxycycline against P. aeruginosa PAO1; type: cell-based; settings: Pseudomonas aeruginosa
Experimental: Antibiotics: All the antibiotics were purchased from Sigma-Aldrich except for doxycycline which was purchased from TCI Europe (Zwijndrecht, Belgium). All antibiotics were dissolved in water. The susceptibility of bacterial strains to antibiotics and compounds was determined in microplates by the standard broth dilution method, according to the recommendations of the Comité de l'AntibioGramme de la Société Française de Microbiologie (CA-SFM).^[36] Briefly, MICs were determined with an inoculum of 10^5 CFU in of MH broth (200 μL) containing twofold serial dilutions of each drug. […] Measurements were repeated in triplicate.

E. aerogenes EA289 = experiment: Nitrocefin hydrolysis assay (outer membrane permeabilization); type: cell-based, Enterobacter aerogenes; settings: 5b even at 3.9 μM, compared to spermine-treated or untreated control
Experimental: Nitrocefin hydrolysis assay: Outer membrane permeabilization was measured by using nitrocefin, a chromogenic substrate of periplasmic β-lactamase. MH broth (10 mL) was inoculated with of an overnight culture (0.1 mL) of EA289 and grown at 37° C. to OD600=0.5. The remaining steps were performed at room temperature. Cells were recovered by centrifugation (3600 G, 20 min) and washed once with potassium phosphate buffer (PPB) (20 mM, pH 7.2) containing MgCl2 (1 mM). After another centrifugation, the pellet was resuspended in PPB (100 μL) and adjusted to OD600=0.5. Then, either Polymyxin B (positive control; Sigma-Aldrich) or 5b (50 μL) was added to the cell suspension (100 gm/L) to final concentrations of 0.98-500 μM “2.5, 15, 62.5, and 125 μM”. Nitrocefin (50 μL, 50 μg/mL; Oxoid) was added, and its hydrolysis was monitored spectrophotometrically by measuring the increase in absorbance at 490 nm. Assays were performed in 96-well plates with an M200 Pro spectrophotometer (Tecan).

In the case of `NCCCCCN` [cadaverine], the antibacterial activity [1] is listed as “no antibacterial activity” and the membrane rupture (bacterial membrane) is listed as “did not cause membrane rupture”.
In the case of `NCCCCNCCCN` [spermidine], the “activity against S. aureus RN4220, P. aeruginosa PAO1 and E. coli ANSI” value [1] is listed as “inactive”.
For `CC(C)[C@@H](CC[C@@H](C)[C@H]1CC[C@H]2[C@@H]3[C@H](O)C[C@H]4C[C@@H](NCCCNCCCCN)CC[C@]4(C)[C@H]3CC[C@]12C)OS(=O)(=O)O` [squalamine], the “ATP release (disruption of the bacterial membrane)” value [2] was “dramatic disruption of the bacterial membrane”.
For `NCCCCN` [putrescine], the antibacterial activity [1] is given as “no antibacterial activity” and the membrane rupture (bacterial membrane) is given as “did not cause membrane rupture”.
In the case of `Cl.Cl.NCCCCNCc1c2ccccc2cc2ccccc12` [7b], the “synergy with chloramphenicol and erythromycin” value ([3]; antibiotic 2 μg/mL, PAO1, EA289 and KPC2-ST258) is reported as “weak or no activity” and the “restoration of doxycycline activity” value ([3]; doxycycline 2 μg/mL, derivative even at 40 μM) is reported as “no improvement”.
For `S=C(NCCCNCCCCCNCCCNC(=S)NCC(c1ccccc1)c1ccccc1)NCC(c1ccccc1)c1ccccc1` [1,13-bis (((2,2-diphenyl)-1-ethyl)thioureido)-4,10-diazatridecane], the cytoplasmic membrane depolarization (bacterial membrane) is listed as “depolarize the cytoplasmic membrane”.
In the case of `NCCCNCCCCNCCCN` [spermine], the “activity against S. aureus RN4220, P. aeruginosa PAO1 and E. coli ANSI” value [1] is given as “inactive” and the “ATP release (disruption of the bacterial membrane)” value [2] is given as “no significant effect”.
`C[C@H]1c2cccc(O)c2C(=O)C2=C(O)[C@]3(O)C(=O)C(C(N)=O)=C(O)[C@@H](N(C)C)[C@@H]3[C@@H](O)[C@@H]21` [doxycycline] gave an MIC (P. aeruginosa PAO1) of 16 µg/mL.
With polymyxin-B the “rate of nitrocefin hydrolysis” value (E. aerogenes EA289) was “increase in nitrocefin hydrolysis”.
